The values that follow come from article PMC6934184, “Selective DNA-PKcs inhibition extends the therapeutic index of localized radiotherapy and chemotherapy” (The Journal of Clinical Investigation, 2019).

This test has as its target T1, PDGFRA D842V (Homo sapiens, UniProt P16234, D842V).
T1 construct: purchased Thermo Fisher Scientific (Life Technologies) SelectScreen
The test can be described thus: SelectScreen Z'LYTE. In kind it is biochemical. The essentials: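 NU5455 was profiled across the SelectScreen Broad panel of kinase activity and binding assays. Z'LYTE reactions such as CSF1R ran at apparent Km ATP, while the Adapta CAMK1 assay used ATP listed as 10. Values are given as percent.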

T1 sequence (P16234 24-1089 D842V): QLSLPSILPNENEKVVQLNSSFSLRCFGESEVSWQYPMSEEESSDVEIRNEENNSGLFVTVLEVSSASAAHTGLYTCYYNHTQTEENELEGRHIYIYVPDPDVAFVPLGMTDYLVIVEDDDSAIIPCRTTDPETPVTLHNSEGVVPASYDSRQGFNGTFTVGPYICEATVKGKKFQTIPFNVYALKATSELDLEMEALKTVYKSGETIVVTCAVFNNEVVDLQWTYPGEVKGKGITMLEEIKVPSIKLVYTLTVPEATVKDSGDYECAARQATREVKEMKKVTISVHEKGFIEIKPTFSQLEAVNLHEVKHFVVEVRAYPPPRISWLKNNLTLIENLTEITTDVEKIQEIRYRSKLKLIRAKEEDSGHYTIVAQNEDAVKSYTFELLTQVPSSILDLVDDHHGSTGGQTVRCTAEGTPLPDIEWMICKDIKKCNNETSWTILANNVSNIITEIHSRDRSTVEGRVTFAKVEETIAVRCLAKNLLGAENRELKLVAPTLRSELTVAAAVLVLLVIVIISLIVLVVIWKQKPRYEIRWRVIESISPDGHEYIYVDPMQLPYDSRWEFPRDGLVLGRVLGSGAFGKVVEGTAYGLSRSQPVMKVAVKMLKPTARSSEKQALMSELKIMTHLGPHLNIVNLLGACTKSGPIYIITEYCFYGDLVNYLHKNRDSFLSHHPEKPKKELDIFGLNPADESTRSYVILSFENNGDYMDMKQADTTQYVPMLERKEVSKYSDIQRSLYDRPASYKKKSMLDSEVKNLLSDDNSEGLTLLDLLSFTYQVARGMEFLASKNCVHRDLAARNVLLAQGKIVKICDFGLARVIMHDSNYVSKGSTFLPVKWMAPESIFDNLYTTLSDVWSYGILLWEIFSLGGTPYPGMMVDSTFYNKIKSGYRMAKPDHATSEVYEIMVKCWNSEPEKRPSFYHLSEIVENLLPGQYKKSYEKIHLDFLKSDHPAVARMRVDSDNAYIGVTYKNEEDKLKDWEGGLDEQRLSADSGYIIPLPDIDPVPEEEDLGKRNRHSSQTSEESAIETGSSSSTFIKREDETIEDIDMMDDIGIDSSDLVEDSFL

Turning to `CN(C(=O)CN1CCOCC1)c1ccc2sc3c(-c4cccc5c(=O)cc(N6CC7CCC(C6)O7)oc45)cccc3c2c1` [NU5455], the inhibition (commonly the drop in the measured response relative to a control, in per cent) at 1 µM was -5%.
